# Test results from US9464106B2, “Oligonucleotides useful for detecting and analyzing nucleic acids of interest” (Exiqon A/S, priority 2002, dated 2016).
# Where two headings read alike, the source gives them in different places. l = locked nucleic acid (LNA); {Biotin} = biotin label; d = 2'-deoxy (DNA)
# What was measured:
# [1] = tested on: human telomere repeat; experiment: FISH with human telomere repeat LNA probe; assay type: binding; settings: 5 pmoles probe, 30 min. hybridization at 37° C.
# Experimental: Chromosome preparations were made by standard methods from peripheral lymphocyte cultures of two normal males. Slides were prepared 1-6 days prior to an experiment and treated with RNAse (10 μg/μl) at 37° C. for one hour before hybridization. […] FISH was carried out as described previously (Silahtaroglu et al, 1998) with the following modifications. […] Slides were washed after 30 min. hybridization at 37° C. Post washing steps included a 2×5 min 0.1×SSC at 60° C.; 5 min 2×SSC at 37° C.; 3 min 4×SSC/0.05% Tween20 at 37° C. and 5 min PBS. […] The whole procedure was carried out in the dark. The signals were visualized using a Leica DMRB epifluorescence microscope equipped with a SenSys charge-coupled device camera (Photometrics, Tucson, Ariz.), and IPLAB Spectrum Quips FISH software (Applied Imaging international Ltd., Newcastle, UK).
# [2] = tested on: C. elegans genes relevant for general stress response and metabolism of toxic compounds
# [3] = tested on: DNA target 3′-d(CACTYTACG); settings: data reported earlier; cited from earlier work
# [4] = tested on: human chromosome 21 alphaRI (680) locus alpha-satellite repeat; experiment: FISH with chromosome-21 specific centromere LNA probes; assay type: binding; settings: 40 min. hybridization at RT
# [5] = tested on: DNA target 3′-d(CACTYTACG); experiment: Thermal denaturation of ON1-ON11 towards DNA complements; assay type: binding; settings: 1.5 μM of the two strands
# [6] = tested on: splice variant #1 and #2 transcripts spiked into C. elegans total RNA; experiment: Splice variant ratio detection with merged LNA block capture probes (Example 9); assay type: binding; settings: signal ratio KU007/KU008, Cy5, normalized
# [7] = C. elegans, incubation 24 hours
compound,measurement,setting,value
"Nc1ncc2ncn([C@@H]3O[C@@]4(CO)CO[C@@H]3[C@@H]4O)c2n1 [compound 23, (1S,3R,4R,7S)-3-(2-aminopurin-9-yl)-7-hydroxy-1-hydroxymethyl-2,5-dioxabicyclo[2.2.1]heptane]",melting point,,227.5 to 229 °C (dec.)
ttagggttagggttagggttaggg [human telomere repeat specific LNA oligonucleotide probe] (TTAGGGTTAGGGTTAGGGTTAGGG),FISH signals on telomeres,[1],prominent signals on the telomeres
Cc1c(OCC(F)(F)F)ccnc1C[S+]([O-])c1nc2ccccc2[nH]1 (stereo not shown) [Lansoprazole],"Log2 transformed fold of change, HSP90 (C47E8.5)",[2]; [7],−1.17
same,"Log2 transformed fold of change, Ubiquitin (M7.1)",[2]; [7],−0.12
same,"Log2 transformed fold of change, CYP37A (F01D5.9)",[2]; in vivo,0.98
5′-d(GTGATATGC) [ON1],"Tm, Y = A",[3],28 °C
same,"Tm, Y = C",[3],11 °C
same,"Tm, Y = G",[3],12 °C
same,"Tm, Y = T",[3],19 °C
"TgTgTaCcCaGcCaAaGgAgTtGa (TGTGTACCCAGCCAAAGGAGTTGA; sugars from the 5' end ldldldldldldldldldldldld, 5' {Biotin}, backbone and methylation of C not given here) [5′ biotin-labelled 24-mer FISH probe]",FISH signals on chromosomes,[4],prominent signals both on chromosomes 13 and 21
"5′-d[2′-OMe(GTGATATGC)] [ON5, reference compound]","Tm, Y = A","[5]; 10 mM sodium phosphate, 100 mM sodium chloride, 0.1 mM EDTA, pH 7.0",35 °C
same,"Tm, Y = C",[5]; medium salt buffer,14 °C
same,"Tm, Y = G",[5]; medium salt buffer,19 °C
same,"Tm, Y = T",[5]; medium salt buffer,21 °C
"gene78.m0103: merged probe corresponding to the exon 01-exon 03 border (DNA CACAACACTGCCCAGAGGTTCAATCGATAAATATGTGAAGGAAATGCCTG; listed as DNA, chemistry not fully specified)",Observed ratio (log2) with merged LNA block capture probes,[6],−0.24
"aCcCaGcCaAaGgAg (ACCCAGCCAAAGGAG; sugars from the 5' end dldldldldldldld, 5' {Biotin}, backbone and methylation of C not given here) [5′ biotin-labelled 15-mer FISH probe]",FISH signals on chromosomes,[4],prominent signals on chromosome 21
